Measurements published in PubChem BioAssay (NCI).
Where “and” joins values, the source holds several entries; their conditions need not be identical. Equal values may be shown once.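 Test compounds were applied to cells in 96-well plates for 48 hours at 5 doses. The concentration for 50% growth inhibition is given as GI50. TGI marks complete inhibition of growth.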 *1 amine or outer side, *2 acyl side, *3 side chain or, on linkers, in order; H or OH if unused. Where a SMILES comes first, the peptide text is derived from it. Bridges are numbered along the chain shown (N, C = ends). [ ]: non-standard residue; d: D form. The star is where a group is joined. Phe(3-Me) = Cc1cccc(C[C@H](N)C(=O)O)c1; NH(4-Cl-2-F-phenyl) = Fc1cc(Cl)ccc1N*; Pro(4R-Me) = C[C@H]1CN[C@H](C(=O)O)C1; Propanoyl(3-NMe2) = CN(C)CCC(=O)*; Hyp = O=C(O)[C@@H]1C[C@@H](O)CN1; aThr = C[C@H](O)[C@H](N)C(=O)O; Pip = O=C(O)[C@@H]1CCCCN1; CO = O=C([*:1])[*:2]

Assays:
Assay in all cases: inhibition of tumour cell growth, NCI panel, 48 h
[1] = tested on: PC-3 prostate
[2] = tested on: UACC-257 melanoma
[3] = tested on: SK-MEL-28 melanoma
[4] = tested on: HCT-116 colon
[5] = tested on: SN12C renal
[6] = tested on: SW-620 colon
[7] = tested on: MALME-3M melanoma
[8] = tested on: HCT-15 colon
[9] = tested on: SF-295 CNS
[10] = tested on: KM12 colon

With O=C(O)/C=C\C(=O)Nc1ccc2c(c1)C(=O)c1cc(F)ccc1-2 the TGI [1] was greater than 100 µM, the TGI [2] was greater than 100 µM and the TGI [3] was greater than 100 µM. It also gave a TGI [4] greater than 100 µM, a TGI [5] greater than 100 µM and a TGI [6] greater than 100 µM. The TGI [7] was greater than 100 µM, the TGI [8] was greater than 100 µM and the TGI [9] was greater than 100 µM. The TGI [10] was greater than 100 µM.
Oc1cc2ccccc2cc1-c1n[nH]c(=S)n1-c1ccc(Cl)cc1 gave a GI50 [1] of 15.7 µM, a TGI [1] greater than 100 µM and a GI50 [2] of 18.7 µM. For the same compound, the TGI [2] was 56.7 µM, the GI50 [3] was 36.4 µM and the TGI [3] was greater than 100 µM. For the same compound, the GI50 [4] was 19.3 µM, the TGI [4] was greater than 100 µM and the GI50 [5] was 10.8 µM. It also gave a TGI [5] of 55.2 µM, a GI50 [6] of 23 µM and a TGI [6] greater than 100 µM. For the same compound, the GI50 [7] was 8.85 µM, the TGI [7] was greater than 100 µM and the GI50 [8] was 7.96 µM. For the same compound, the TGI [8] was greater than 100 µM, the GI50 [9] was 13.1 µM and the TGI [9] was greater than 100 µM. For the same compound, the GI50 [10] was 9.14 µM and the TGI [10] was greater than 100 µM.
For S=C(N/N=C(/c1ccccc1)c1ccccn1)Nc1cccc(Cl)c1, the GI50 [1] was 0.0264 µM, the TGI [1] was 7.05 µM and 6.71 µM and the GI50 [2] was 0.00172 µM. For the same compound, the GI50 [3] was 2.09 µM, the TGI [3] was 7.69 µM and 6.18 µM and the GI50 [4] was 0.00475 µM. The TGI [4] was 1.91 µM and 1.76 µM, the TGI [5] was 6.07 µM and the GI50 [6] was 0.0444 µM. The TGI [6] was 2.88 µM and 5.77 µM, the GI50 [7] was 0.0169 µM and the TGI [7] was 2.22 µM and 5.37 µM. For the same compound, the GI50 [8] was 0.142 µM, the TGI [8] was 5.06 µM and the GI50 [9] was 0.968 µM. For the same compound, the TGI [9] was 5.36 µM and 5.17 µM, the GI50 [10] was 0.144 µM and the TGI [10] was 3.55 µM and 6.75 µM.
Compound COc1ccc(CNc2nc(NCc3ccc(OC)cc3)c3n[nH]c(C(C)C)c3n2)cc1 has a GI50 [1] of 4.29 µM, a TGI [1] of 23.8 µM and a GI50 [2] of 16.4 µM. The TGI [2] was 30.8 µM, the GI50 [3] was 2.13 µM and the TGI [3] was 16 µM. The GI50 [4] was 4.06 µM, the TGI [4] was 22.6 µM and the GI50 [5] was 9.14 µM. It also gave a TGI [5] of 27.7 µM, a GI50 [6] of 3.27 µM and a TGI [6] greater than 100 µM. It also gave a GI50 [7] of 7.5 µM, a TGI [7] greater than 100 µM and a GI50 [8] of 5.09 µM. It also gave a TGI [8] of 28.8 µM, a GI50 [9] of 3.24 µM and a TGI [9] of 9.96 µM. The GI50 [10] was 4.29 µM and the TGI [10] was greater than 100 µM.
In the case of CCN1CCN(C(=O)[C@]23CCC(C)(C)C[C@@H]2C2=CC[C@@H]4[C@@]5(C)C/C(=C/c6cccnc6)C(=O)C(C)(C)[C@@H]5CC[C@@]4(C)[C@]2(C)CC3)CC1, the GI50 [1] is reported as 1 µM, the TGI [1] is reported as 2.79 µM and the GI50 [2] is reported as 1.62 µM. The TGI [2] was 4.29 µM, the GI50 [3] was 1.48 µM and the TGI [3] was 2.83 µM. The GI50 [4] was 1.01 µM, the TGI [4] was 2.22 µM and the GI50 [5] was 1.22 µM. For the same compound, the TGI [5] was 2.54 µM, the GI50 [6] was 1.78 µM and the TGI [6] was 3.88 µM. For the same compound, the GI50 [7] was 1.53 µM, the TGI [7] was 2.91 µM and the GI50 [8] was 1.08 µM. It also gave a TGI [8] of 2.71 µM, a GI50 [9] of 1.66 µM and a TGI [9] of 3.15 µM. For the same compound, the GI50 [10] was 1.58 µM and the TGI [10] was 3.26 µM.
CN1CCCCC1CCN1c2ccccc2Sc2ccc(S(C)=O)cc21 (stereo unspecified) was tested, and the TGI [1] was greater than 100 µM, the TGI [2] was greater than 100 µM and the TGI [3] was greater than 100 µM. The TGI [4] was greater than 100 µM, the TGI [5] was greater than 100 µM and the TGI [6] was greater than 100 µM. The TGI [7] was greater than 100 µM, the TGI [8] was greater than 100 µM and the TGI [9] was greater than 100 µM. For the same compound, the TGI [10] was greater than 100 µM.
Cc1cccc(C[C@H](NC(=O)Nc2ccc(Cl)cc2F)C(=O)N[C@@H]2C(=O)N3C[C@H](OC(=O)CCN(C)C)C[C@H]3C(=O)N3CCCC[C@H]3C(=O)N[C@@H](C)C(=O)N3C[C@H](C)C[C@H]3C(=O)O[C@H]2C)c1 ({NH(4-Cl-2-F-phenyl)-CO}-[Phe(3-Me)][aThr][Hyp](Propanoyl(3-NMe2))[Pip]A[Pro(4R-Me)]; ester 2-C) was tested, and the GI50 [1] was 0.368 µM, the TGI [1] was 1.76 µM and the GI50 [2] was 0.385 µM. It also gave a TGI [2] of 2.14 µM, a GI50 [3] of 0.706 µM and a TGI [3] of 2.1 µM. For the same compound, the GI50 [4] was 0.408 µM, the TGI [4] was 1.62 µM and the GI50 [5] was 0.371 µM. It also gave a TGI [5] of 2.18 µM, a GI50 [6] of 0.6 µM and a TGI [6] of 2.94 µM. The GI50 [7] was 0.567 µM, the TGI [7] was 1.97 µM and the GI50 [8] was 1.98 µM. It also gave a TGI [8] of 4.34 µM, a GI50 [9] of 0.426 µM and a TGI [9] of 2.15 µM. For the same compound, the GI50 [10] was 0.746 µM and the TGI [10] was 2.34 µM.
CCCCCCCCCC(CCCC(O)CC(=O)O)OC1OC(COC2OC(C)C(O)C(O)C2O)C(O)C(O)C1OC1OC(CO)C(O)C(O)C1OC1OC(C)C(O)C(O)C1O (stereo unspecified) was tested, and the GI50 [1] was greater than 40 µM, the TGI [1] was greater than 40 µM and the GI50 [2] was greater than 40 µM. The TGI [2] was greater than 40 µM, the GI50 [3] was greater than 40 µM and the TGI [3] was greater than 40 µM. For the same compound, the GI50 [4] was greater than 40 µM, the TGI [4] was greater than 40 µM and the GI50 [5] was greater than 40 µM. For the same compound, the TGI [5] was greater than 40 µM, the GI50 [6] was greater than 40 µM and the TGI [6] was greater than 40 µM. It also gave a GI50 [7] greater than 40 µM, a TGI [7] greater than 40 µM and a GI50 [8] greater than 40 µM. For the same compound, the TGI [8] was greater than 40 µM, the GI50 [9] was greater than 40 µM and the TGI [9] was greater than 40 µM. The GI50 [10] was greater than 40 µM and the TGI [10] was greater than 40 µM.
With COc1ccc(CC2C3=C(CCCC3)CCN2C)cc1 (stereo unspecified) the TGI [1] was greater than 100 µM, the TGI [2] was greater than 100 µM and the TGI [3] was greater than 100 µM. For the same compound, the TGI [4] was greater than 100 µM, the TGI [5] was greater than 100 µM and the TGI [6] was greater than 100 µM. The TGI [7] was greater than 100 µM, the TGI [8] was greater than 100 µM and the TGI [9] was greater than 100 µM. The TGI [10] was greater than 100 µM.
Work on O=C(CN1CCN(c2ccc(Cl)cc2)CC1)N1CCN(c2nnc(-c3ccccc3)c(-c3ccccc3)n2)CC1 yielded a GI50 [1] of 3.1 µM, a TGI [1] greater than 100 µM and a GI50 [2] of 26.6 µM. The TGI [2] was greater than 100 µM, the GI50 [4] was 3.42 µM and the TGI [4] was greater than 100 µM. It also gave a GI50 [5] of 8.23 µM, a TGI [5] greater than 100 µM and a GI50 [6] of 38.9 µM. For the same compound, the TGI [6] was greater than 100 µM, the GI50 [7] was 2.7 µM and the TGI [7] was greater than 100 µM. It also gave a GI50 [8] of 5.12 µM, a TGI [8] greater than 100 µM and a GI50 [9] of 4.88 µM. It also gave a TGI [9] greater than 100 µM, a GI50 [10] of 4.04 µM and a TGI [10] greater than 100 µM.
